In US20240158446A1, “CYCLIC COMPOUND HAVING SELECTIVE INHIBITORY ACTION ON KRAS OVER HRAS AND NRAS” (CHUGAI SEIYAKU KABUSHIKI KAISHA, priority 2021, published 2024):
Read-outs that look alike come from different tables or passages of the source. Where a SMILES comes first, the peptide text is derived from it. Bridges are numbered along the chain shown (N, C = ends). [ ]: non-standard residue; d: D form. The star is where a group is joined. hPhe(3-Cl-4-CF3) = N[C@@H](CCc1ccc(C(F)(F)F)c(Cl)c1)C(=O)O; NPrPhe(4-CF3) = CCCN[C@@H](Cc1ccc(C(F)(F)F)cc1)C(=O)O; NMePhe(4-Me) = CN[C@@H](Cc1ccc(C)cc1)C(=O)O; NMeGly(cPent) = CN[C@H](C(=O)O)C1CCCC1; Pro(4,4-F2) = O=C(O)[C@@H]1CC(F)(F)CN1; Hyp = O=C(O)[C@@H]1C[C@@H](O)CN1; NMeD = CN[C@@H](CC(=O)O)C(=O)O; NMeL = CN[C@@H](CC(C)C)C(=O)O; Morpholide = C1CN(*)CCO1; NMeA = CN[C@@H](C)C(=O)O; Ac5c = NC1(C(=O)O)CCCC1; Aze = O=C(O)[C@@H]1CCN1; Ac4c = NC1(C(=O)O)CCC1; NEtG = CCNCC(=O)O; Sar = CNCC(=O)O

What was measured:
[1] = target: GDP-bound KRAS wild-type protein (Homo sapiens, UniProt P01116); experiment: Binding to KRAS by surface plasmon resonance (SPR), Single Cycle Kinetics; conditions: GDP-bound KRAS wild-type protein, read-out: KRAS KD
GDP-bound KRAS wild-type protein, sequence (P01116 whole entry): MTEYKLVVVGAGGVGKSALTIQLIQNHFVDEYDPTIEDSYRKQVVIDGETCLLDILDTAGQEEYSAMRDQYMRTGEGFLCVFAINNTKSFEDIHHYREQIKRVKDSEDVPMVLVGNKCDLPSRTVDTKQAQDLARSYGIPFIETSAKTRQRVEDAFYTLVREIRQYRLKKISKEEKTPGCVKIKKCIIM

[2] = target: GDP-bound NRAS wild-type protein (Homo sapiens, UniProt P01111); experiment: Binding to NRAS by surface plasmon resonance (SPR), Single Cycle Kinetics; conditions: for NRAS/KRAS (ratio of KD value with respect to GDP-bound NRAS wild-type protein to KD value with respect to KRAS): SPR KD ratio NRAS/KRAS, class symbols
GDP-bound NRAS wild-type protein, sequence (P01111 whole entry): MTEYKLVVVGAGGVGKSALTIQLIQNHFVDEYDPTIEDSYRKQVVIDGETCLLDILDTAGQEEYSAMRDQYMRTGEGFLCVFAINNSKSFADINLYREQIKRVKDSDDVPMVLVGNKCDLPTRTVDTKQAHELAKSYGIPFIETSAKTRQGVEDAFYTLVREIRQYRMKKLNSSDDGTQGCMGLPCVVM

[3] = target: GDP-bound HRAS wild-type protein (Homo sapiens, UniProt P01112); experiment: Binding to HRAS by surface plasmon resonance (SPR), Single Cycle Kinetics; conditions: for HRAS/KRAS (ratio of KD value with respect to GDP-bound HRAS wild-type protein to KD value with respect to KRAS): SPR KD ratio HRAS/KRAS, class symbols
GDP-bound HRAS wild-type protein, sequence (P01112 whole entry): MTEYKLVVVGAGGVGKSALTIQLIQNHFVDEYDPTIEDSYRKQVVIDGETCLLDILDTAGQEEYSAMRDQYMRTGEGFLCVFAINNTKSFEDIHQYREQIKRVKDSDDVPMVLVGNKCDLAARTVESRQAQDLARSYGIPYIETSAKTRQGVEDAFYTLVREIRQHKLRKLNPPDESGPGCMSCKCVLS

[4] = SPR Single Cycle Kinetics, 1:1 binding model
[5] = SPR, GDP-bound NRAS wild-type protein vs GDP-bound KRAS wild-type protein
[6] = SPR, GDP-bound HRAS wild-type protein vs GDP-bound KRAS wild-type protein

SMILES | Kd [1, 4] | NRAS/KRAS (ratio of KD value for NRAS to KD value for KRAS) [2, 5] | HRAS/KRAS (ratio of KD value for HRAS to KD value for KRAS) [3, 6] | also measured
CCC[C@H]1C(=O)N[C@@H]([C@@H](C)CC)C(=O)N(C)CC(=O)N(C)[C@H]2C/C=C\CCN(C2=O)[C@@H](Cc2ccc(C(F)(F)F)cc2)C(=O)N(C)CC(=O)N[C@@H](CCc2ccc(CC)c(Cl)c2)C(=O)N2C[C@H](OCC)C[C@H]2C(=O)NC2(CC(C)(C)C2)C(=O)N(C)[C@@H](C2CCCC2)C(=O)N(C)[C@H](C(=O)N(C)C)CC(=O)N1C [PP2848] | 0.47 nM | – | – | NRAS/KRAS (ratio of KD value with respect to GDP-bound NRAS wild-type protein to KD value with respect to KRAS) [2]: A (a compound having 10 or more and less than 20 is denoted as A); HRAS/KRAS (ratio of KD value with respect to GDP-bound HRAS wild-type protein to KD value with respect to KRAS) [3]: A (a compound having 10 or more and less than 20 is denoted as A)
CCCN1C(=O)CN(C)C(=O)CNC(=O)[C@H]([C@@H](C)CC)NC(=O)[C@H](CC(C)C)N(C)C(=O)C[C@@H](C(=O)N(C)C)NC(=O)[C@H](C2CCCC2)N(C)C(=O)C2(CCC2)NC(=O)[C@@H]2C[C@@H](OCC)CN2C(=O)[C@H](CCc2ccc(C(F)(F)F)c(Cl)c2)NC(=O)CN(C)C(=O)[C@@H]1Cc1ccc(C(F)(F)F)cc1 [PP0366] ([NMeL]IG[Sar][NPrPhe(4-CF3)][Sar][hPhe(3-Cl-4-CF3)][Hyp](Et)[Ac4c][NMeGly(cPent)]D-NMe2; lactam N-11) | 0.38 nM | B (a compound having 3 or more and less than 10 is denoted as B) | B (a compound having 3 or more and less than 10 is denoted as B) | –
CCCO[C@@H]1C[C@H]2C(=O)NC3(CC(C)(C)C3)C(=O)N(C)[C@@H](C(CC)CC)C(=O)N(C)[C@H](C(=O)N(C)C)CC(=O)N(C)[C@H]3CCCCc4ccc(cc4)C[C@@H](C(=O)N(C)CC(=O)N[C@@H](CCc4ccc(C(F)(F)F)c(OC)c4)C(=O)N2C1)N1CC/C=C\C[C@@H](C1=O)N(C)C(=O)CN(C)C(=O)[C@H]([C@@H](C)CC)NC3=O [PP3038] | – | A (a compound having 10 or more and less than 20 is denoted as A) | A (a compound having 10 or more and less than 20 is denoted as A) | Kd ([1]; SPR, Single Cycle Kinetics): 0.15 nM
CCO[C@@H]1C[C@H]2C(=O)NC3(CC(C)(C)C3)C(=O)N(C)[C@@H](C3CCCC3)C(=O)N(C)[C@H](C(=O)N(C)CC)CC(=O)N(C)[C@@H](C(C)C)C(=O)N[C@@H]([C@@H](C)CC)C(=O)N(C)CC(=O)N(C)[C@H]3C/C=C\CCN(C3=O)[C@@H](Cc3ccc(C(F)(F)F)cc3)C(=O)N(C)CC(=O)N[C@@H](CCc3cc(F)c(C(F)(F)F)c(F)c3)C(=O)N2C1 [PP2034] | – | A (a compound having 10 or more and less than 20 is denoted as A) | A (a compound having 10 or more and less than 20 is denoted as A) | Kd ([1]; SPR, Single Cycle Kinetics): 0.19 nM
CC[C@H](C)[C@@H]1NC(=O)[C@H](CC(C)C)N(C)C(=O)C[C@@H](C(=O)N2CCOCC2)N(C)C(=O)[C@H](C2CCCC2)N(C)C(=O)C2(CCCC2)NC(=O)[C@@H]2CCCN2C(=O)[C@H](CCc2ccc(C(F)(F)F)c(Cl)c2)NC(=O)CN(C)C(=O)[C@H](Cc2ccc(Cl)cc2)N2CCCCC[C@@H](C2=O)N(C)C(=O)CN(C)C1=O [PP0613] | 0.6 nM | – | – | NRAS/KRAS (ratio of KD value with respect to NRAS to KD value with respect to KRAS) [2, 5]: B (a compound having 3 or more and less than 10 is denoted as B); HRAS/KRAS (ratio of KD value with respect to HRAS to KD value with respect to KRAS) [3, 6]: B (a compound having 3 or more and less than 10 is denoted as B)
CCO[C@@H]1C[C@H]2C(=O)NC3(CC(C)(C)C3)C(=O)N(C)[C@@H](C(CC)CC)C(=O)N(C)[C@H](C(=O)N(C)C)CC(=O)N(C)[C@@H](COC)C(=O)N[C@@H]([C@@H](C)CC)C(=O)N(C)CC(=O)N(C)[C@H]3C/C=C\CCN(C3=O)[C@@H](Cc3ccc(C(F)(F)F)cc3)C(=O)N(C)CC(=O)N[C@@H](CCc3ccc(C(F)(F)F)c(Cl)c3)C(=O)N2C1 [PP2126] | – | A (a compound having 10 or more and less than 20 is denoted as A) | B (a compound having 3 or more and less than 10 is denoted as B) | Kd ([1]; SPR, Single Cycle Kinetics): 0.23 nM
CCCN1C(=O)CN(C)C(=O)CN(C)C(=O)[C@H]([C@@H](C)CC)NC(=O)[C@H](CC(C)C)N(C)C(=O)C[C@@H](C(=O)N(C)C)NC(=O)[C@H](C2CCCC2)N(C)C(=O)C2(CCC2)NC(=O)[C@@H]2CC(F)(F)CN2C(=O)[C@H](CCc2ccc(C(F)(F)F)c(Cl)c2)NC(=O)CN(C)C(=O)[C@@H]1Cc1ccc(C(F)(F)F)cc1 [PP0358] ([NMeL]I[Sar][Sar][NPrPhe(4-CF3)][Sar][hPhe(3-Cl-4-CF3)][Pro(4,4-F2)][Ac4c][NMeGly(cPent)]D-NMe2; lactam N-11) | 0.33 nM | B (a compound having 3 or more and less than 10 is denoted as B) | C (A compound having a KD ratio of 0.1 or more and less than 3 is denoted as C) | –
CC[C@H](C)[C@@H]1NC(=O)[C@H](CC(C)C)N(C)C(=O)C[C@@H](C(=O)N2CCOCC2)N(C)C(=O)[C@H](C2CCCC2)N(C)C(=O)C2(CCCC2)NC(=O)[C@@H]2CCCN2C(=O)[C@H](CCc2ccc(C(F)(F)F)c(Cl)c2)NC(=O)CN(C)C(=O)[C@H](Cc2ccc(C)cc2)N(C)C(=O)[C@@H]2CCN2C(=O)[C@H](C)N(C)C1=O [PP0001] ([NMeL]I[NMeA][Aze][NMePhe(4-Me)][Sar][hPhe(3-Cl-4-CF3)]P[Ac5c][NMeGly(cPent)][NMeD]-Morpholide; lactam N-11) | 0.14 nM | C (A compound having a KD ratio of 0.1 or more and less than 3 is denoted as C) | C (A compound having a KD ratio of 0.1 or more and less than 3 is denoted as C) | –
CC[C@H](C)[C@@H]1NC(=O)[C@H](CC(C)C)N(C)C(=O)C[C@@H](C(=O)N2CCOCC2)N(C)C(=O)[C@H](C2CCCC2)N(C)C(=O)C2(CCCC2)NC(=O)[C@@H]2CCCN2C(=O)[C@H](CCc2ccc(C(F)(F)F)c(Cl)c2)NC(=O)CN(CC)C(=O)[C@H](Cc2ccc(C)cc2)N(C)C(=O)CN(C)C(=O)CN(C)C1=O [PP0025] ([NMeL]I[Sar][Sar][NMePhe(4-Me)][NEtG][hPhe(3-Cl-4-CF3)]P[Ac5c][NMeGly(cPent)][NMeD]-Morpholide; lactam N-11) | 2.4 nM | C (A compound having a KD ratio of 0.1 or more and less than 3 is denoted as C) | C (A compound having a KD ratio of 0.1 or more and less than 3 is denoted as C) | –
CCO[C@@H]1C[C@H]2C(=O)NC3(CCC3)C(=O)N(C)[C@@H](C3CCCC3)C(=O)N(C)[C@H](C(=O)N(C)CCOC)CC(=O)N(C)[C@@H](CC(C)C)C(=O)N[C@@H]([C@@H](C)CC)C(=O)N(C)CC(=O)N(C)[C@H]3C/C=C\CCN(C3=O)[C@@H](Cc3ccc(C(F)(F)F)cc3)C(=O)N(C)CC(=O)N[C@@H](CCc3ccc(Cl)c(Cl)c3)C(=O)N2C1 [PP1326] | – | – | – | Kd ([1]; SPR, Single Cycle Kinetics, 1:1 binding model): 0.27 nM; NRAS/KRAS (ratio of KD value for NRAS to KD value for KRAS) ([2]; SPR, GDP-bound NRAS wild-type protein vs GDP-bound KRAS wild-type protein, KD ratio class): AA (a compound having 20 or more is denoted as AA); HRAS/KRAS (ratio of KD value for HRAS to KD value for KRAS) ([3]; SPR, GDP-bound HRAS wild-type protein vs GDP-bound KRAS wild-type protein, KD ratio class): A (a compound having 10 or more and less than 20 is denoted as A)
CCCN1C(=O)[C@@H]2CCN2C(=O)[C@H](C)N(C)C(=O)[C@H]([C@@H](C)CC)NC(=O)[C@H](CC(C)C)N(C)C(=O)C[C@@H](C(=O)N2CCOCC2)NC(=O)[C@H](C2CCCC2)N(C)C(=O)C2(CCC2)NC(=O)[C@@H]2C[C@@H](OCC)CN2C(=O)[C@H](CCc2ccc(C(F)(F)F)c(Cl)c2)NC(=O)CN(C)C(=O)[C@@H]1Cc1ccc(C(F)(F)F)cc1 [PP0348] ([NMeL]I[NMeA][Aze][NPrPhe(4-CF3)][Sar][hPhe(3-Cl-4-CF3)][Hyp](Et)[Ac4c][NMeGly(cPent)]D-Morpholide; lactam N-11) | 0.38 nM | C (A compound having a KD ratio of 0.1 or more and less than 3 is denoted as C) | B (a compound having 3 or more and less than 10 is denoted as B) | –
CCCN1C(=O)[C@@H]2CCN2C(=O)[C@H](C)N(C)C(=O)[C@H]([C@@H](C)CC)NC(=O)[C@H](CC(C)C)N(C)C(=O)C[C@@H](C(=O)N2CCOCC2)N(C)C(=O)[C@H](C2CCCC2)N(C)C(=O)C2(CCCC2)NC(=O)CN(C)C(=O)[C@H](CCc2ccc(C(F)(F)F)c(Cl)c2)NC(=O)CN(C)C(=O)[C@@H]1Cc1ccc(C(F)(F)F)cc1 [PP0287] ([NMeL]I[NMeA][Aze][NPrPhe(4-CF3)][Sar][hPhe(3-Cl-4-CF3)][Sar][Ac5c][NMeGly(cPent)][NMeD]-Morpholide; lactam N-11) | 0.26 nM | C (A compound having a KD ratio of 0.1 or more and less than 3 is denoted as C) | C (A compound having a KD ratio of 0.1 or more and less than 3 is denoted as C) | –
CC[C@H](C)[C@@H]1NC(=O)[C@@H]2CCC/C=C/c3ccc(cc3)C[C@@H](C(=O)N(C)CC(=O)N[C@@H](CCc3ccc(Cl)c(Cl)c3)C(=O)N3C[C@H](OC(C)C)C[C@H]3C(=O)NC3(CC(C)(C)C3)C(=O)N(C)[C@@H](C3CCCC3)C(=O)N(C)[C@H](C(=O)N(C)CC)CC(=O)N2C)N2CC/C=C\C[C@@H](C2=O)N(C)C(=O)CN(C)C1=O [PP2595] | 0.17 nM | – | – | NRAS/KRAS (ratio of KD value with respect to GDP-bound NRAS wild-type protein to KD value with respect to KRAS) [2]: A (a compound having 10 or more and less than 20 is denoted as A); HRAS/KRAS (ratio of KD value with respect to GDP-bound HRAS wild-type protein to KD value with respect to KRAS) [3]: B (a compound having 3 or more and less than 10 is denoted as B)
